Experimental data reported in patent US20180055838A1, “METHODS AND COMPOSITIONS FOR TREATMENT OF DERMAL AND EPIDERMAL WOUNDS” (THE PENN STATE RESEARCH FOUNDATION, priority 2011, published 2018).

Key:
[1] = test system: full-thickness cutaneous wound; experiment: Healing of 5-mm full-thickness cutaneous wound in Type 2 diabetic (db/db) mice; format: in vivo; settings: 10^−5 M NTX in moisturizing cream 3 times daily, by days 6, 13, and 15, p<0.05
Source text: To study the effects of opioid receptor antagonists on wound healing in a Type 2 diabetic and general obesity model, wound healing was compared between wild type and Lepr^db (also referred to as db/db) mutant mice. Mice homozygous for the diabetes spontaneous mutation (Lepr^db) become identifiably obese around 3 to 4 weeks of age. Plasma insulin levels become elevated beginning at 10 to 14 days and blood sugar levels become elevated beginning at four to eight weeks. These mice show delayed wound healing compared to wild type mice.
Mice were purchased from Jackson Laboratories and housed under standard laboratory care. Body weights and blood glucose levels of 8-week old Type 2 diabetic (db/db) mice and wild type C57Bl/6 mice were obtained (FIG. 9). Tail vein blood was obtained and glucose levels were measured by a TrueTrak glucometer. Values represent means±SEM; n=6-10 mice/treatment group.
To study wound healing, a 5-mm circular full-thickness cutaneous wound was created on the dorsum of db/db and wild type mice. Db/db mice were treated with either 10^−5 M Naltrexone (NTX) in moisturizing cream (vehicle), or vehicle alone; wild type mice received vehicle only. Applications were made 3 times daily for 15 days.

[2] = literature reports (Stinchcomb 2002; Krishman 2010); cited from earlier work
human and animal cells = human and animal cells (Cheng 2009); cited from earlier work
[3] = test system: full-thickness cutaneous wounds; experiment: Closure of 6 mm full-thickness cutaneous wounds (residual wound area, contraction, re-epithelialization); format: in vivo, rat; settings: Normal rats, 10^−5 M NTX in MCN; for reduction of wound area relative to MCN+vehicle: within 3 days
Method: In a second set of experiments, Normal (n=70) and DB (n=70) Sprague-Dawley rats, 12-14 weeks of age and 8 weeks after injection of STZ, were subjected to wounding. Eight rats/treatment regimen were evaluated over the course of 3 independent experiments. The dorsum of the rat was shaved, and areas (20 mm in diameter) outlined with a marker in order to consistently position the wounds. Animals were anesthetized by i.p. injection of ketamine (60 mg/kg), xylazine (10 mg/kg), and acepromazine (1 mg/kg), and a 6 mm full-thickness circular excisional skin wound was made in the center of the demarked area to the level of the panniculus muscle using an Acupunch (Acuderm Inc., Fort Lauderdale, Fla.). Three wounds per rat were standardized such that the first wound was made 5 cm posterior to the occipital notch at the posterior of the animal's cranium and 1 cm off the midline. The second wound was created 7 cm posterior to the occipital notch at the posterior of the animal's cranium and 1 cm off the midline on the opposite side from the first wound. The third wound was placed 9 cm posterior to the occipital notch at the base of the animal's cranium and 1 cm off the midline on the same side as the first wound. To minimize the effects of diurnal rhythm, surgery was performed between 0800-0900 h. All wounds were left uncovered.
Topical administration of ˜0.1 ml of the carrier containing NTX or vehicle, using the dosage and carriers selected from the first experiment, was initiated immediately after wounding (0800 h for those rats receiving agents only once per day, and at 0800, 1200, and 1600 h for those animals receiving 3 applications daily); control rats received the carrier with vehicle either once or three times daily. Some animals in the Normal and DB groups were wounded but untreated.
Wound size was monitored by capturing images with a digital camera mounted on a tripod set 20 cm from the surface; a ruler was photographed with each wound. Animals were manually restrained without anesthesia for photography. Photographs were taken immediately after surgery and on days 3, 5, 7, 9, and 11. The area of each wound was analyzed using Image ProPlus 6.2 (Media Cybernetics, Inc., Bethesda, Md.). The percent residual wound was calculated at each time point for every rat. At 8 days, wound closure also was quantified according to Pietramaggiori and colleagues (Pietramaggiori et al., J Surg Res 160:169-177 (2010)) by measuring contraction, re-epithelialization, and open wound as a percentage of the original wound area. The sum of contracted, re-epithelialized, and open wound area was defined as equaling 100% of the original wound size (Yannas I., Tissue and Organ Regeneration in Adults. New York: Springer, 2001).

[4] = test system: epithelium covering the granulation tissue; experiment: Histopathology and epithelial thickness of wounded region 20 days after wounding; format: in vivo, rat
Method: On day 20 following creation of the wound, some rats were euthanized and the original wound areas as well as tissue peripheral to the wound that encompassed the 20 mm diameter circle were excised and fixed in 10% neutral buffered formalin. Tissues were processed for paraffin embedding; sections were stained with hematoxylin and eosin. The thickness of the epithelium covering the granulation tissue was measured with an ocular micrometer. Five measures/section from 7-8 wounds/treatment group were evaluated at 250× magnification.

[5] = test system: basal cells of the cutaneous epithelium; experiment: DNA synthesis (BrdU labeling index) in stratum basale of unwounded dorsal skin; format: in vivo; settings: for increase of BrdU incorporation relative to labeling index of DB animals: DB (T1D) rats
Method: Male Sprague-Dawley rats (˜150 g) were purchased from Charles River Laboratories (Wilmington, Mass.), and housed under standard laboratory conditions; water and food were available ad libitum. All investigations conformed to the guidelines of The Pennsylvania State University College of Medicine Institutional Animal Care and Use Committee.
Type 1 diabetes (T1D) was induced by intraperitoneal (i.p.) injections of 40 mg/kg streptozotocin (STZ, Sigma, St. Louis, Mo.), on two consecutive days (Klocek et al., Journal of Ocular Pharmacology and Therapeutics, 23:89-102 (2007); Havel et al., Diabetes, 49:244-252 (2000)). This regimen produced insulin-dependent diabetes in 100% of the animals within 72-96 h; rats with blood glucose levels measuring >350 mg/dl were considered diabetic (DB). Blood glucose levels were monitored from the tail vein using a True Track® Smart System glucometer (Home Diagnostics, Ft. Lauderdale, Fla.) before receiving STZ, and at 1, 4, and 8 weeks following induction of hyperglycemia. Control animals receiving an injection of an equivalent volume of sterile saline were termed “normal”. All rats were weighed weekly.
Normal (n=24) and diabetic (DB) rats (n=24) were randomized 8 weeks after injections of STZ or saline, and received NTX (Sigma-Aldrich, Indianapolis, Ind.) systemically (30 mg/kg, i.p. or subcutaneous (s.c.) at 0800 h) or topically 3 times daily at 0700, 1200, and 1700 h. For topical applications, NTX was dissolved in Sorenson's phosphate buffer (SPB), KY jelly (KYJ) (K-Y, Personal Products Company, McNeil-PPC, Inc., Skillman, N.J.), Neutrogena moisturizing cream (MCN) (Neutrogena Corporation, Los Angeles, Calif.), or DMSO (VWR, Philadelphia, Pa.). NTX was dissolved in sterile water at dosages of 10^−4 M, 10^−5 M or 10^−6 M, and thoroughly mixed into each of the carriers (1:1, v/v); 0.5 ml of saline mixed into corresponding carriers served as the respective vehicle control.
On the day preceding NTX or vehicle treatment, an 8×8 cm area was shaved on the dorsal surface of each rat and 4 circles (approximately 20 mm in diameter) were made with a permanent marker to denote locations of subsequent topical applications and/or skin collection. Using an applicator stick, one ml of carrier containing NTX or vehicle was placed within the demarked areas. Applications of NTX formulations were randomized to different positions. Each animal received NTX in 3 different concentrations, as well as the vehicle, in the same carrier; some rats received only saline in a carrier or were untreated.
To assess cells undergoing DNA synthesis, rats were injected i.p. with 100 mg/kg BrdU (Sigma-Aldrich) 3 and 6 h before euthanasia with Euthasol (Virbac, Fort Worth, Tex.). Appropriate regions of the skin were removed, fixed in 10% buffered formalin, and paraffin sections (6 μm) were stained with anti-BrdU-POD (Invitrogen, Carlsbad, Calif.). BrdU stained cells in the basal layer of the epithelium were counted in four 0.1 mm grids at 250× magnification using 2 sections/specimen; 3 tissue specimens were analyzed for each dosage of NTX in each carrier.

O=C1CC[C@@]2(O)[C@H]3Cc4ccc(O)c5c4[C@@]2(CCN3CC2CC2)[C@H]1O5 [NTX, 17-(cyclopropylmethyl)-4,5α-epoxy-3,14-dihydroxymorphinan-6-one]
wound healing (percent residual defect) relative to db/db mice treated with vehicle only [1]: significant improvement in would healing | penetration of the skin [2]: poor penetrator of the skin | entry into cells (human and animal cells): rapidly by passive diffusion | reduction of wound size relative to MCN+vehicle ([3]; one time daily, days 3, 5, 7, and 9): 31-82% | reduction of wound area relative to MCN+vehicle ([3]; single daily regimen): 30% | reduction of wound size relative to MCN+vehicle ([3]; three times daily, days 3, 5, 7, and 9 (day 9 not significant)): 11-23% | reduction of wound area relative to MCN+vehicle ([3]; three times daily): 11% | thickness of the epithelium relative to Normal animals receiving vehicle (24.6±1.6 μm) ([4]; DB rats subjected to NTX, day 20 (DB vehicle had a 44% reduction)): did not differ | general structure of the epithelium (e.g., absence of necrotic cells) ([4]; Normal and DB rats receiving vehicle or NTX, 20 days following surgery): appeared to be similar | thickness of the epithelium relative to Normal animals receiving vehicle (24.6±1.6 μm) ([4]; Normal rats treated with NTX, day 20): did not differ | increase of BrdU incorporation relative to labeling index of DB animals ([5]; systemic 30 mg/kg NTX i.p.): 181% | increase of BrdU incorporation relative to labeling index of DB animals ([5]; systemic 30 mg/kg NTX s.c.): 59% | effect on BrdU incorporation ([5]; DB rats, topical NTX 10^−4 and 10^−5 M in SPB): no effect | elevation of labeling index from baseline levels ([5]; DB rats, topical NTX at all 3 dosages in KYJ): 103-147% | elevation of labeling index from baseline levels ([5]; DB rats, topical NTX at all 3 dosages in MCN): 85-89% | efficacy on BrdU labeling ([5]; DB rats, topical NTX combined with DMSO, only at 10^−4 and 10^−5 M): efficacious | elevation of BrdU labeling relative to labeling index of Normal rats ([5]; Normal rats, systemic 30 mg/kg NTX i.p.): 172% | elevation of BrdU labeling relative to labeling index of Normal rats ([5]; Normal rats, systemic 30 mg/kg NTX s.c.): 51% | elevation of DNA synthesis from baseline levels ([5]; Normal rats, topical NTX 10^−4 M to 10^−6 M in any of the 4 carriers (SPB, DMSO, KYJ, MCN)): 43-132% | increase in BrdU incorporation in the skin compared to baseline ([5]; Normal rats, topical NTX in SPB): 43-56% | change of BrdU incorporation from baseline ([5]; Normal rats, topical NTX, different dosages, in MCN): 73-132% | toxicity of the effects on cell proliferation ([5]; T1D and normal rats, systemic or topical): not toxic
